The target of data set [1] is T1, Mineralocorticoid receptor (Homo sapiens, UniProt P08235).
T1 sequence (P08235 whole entry): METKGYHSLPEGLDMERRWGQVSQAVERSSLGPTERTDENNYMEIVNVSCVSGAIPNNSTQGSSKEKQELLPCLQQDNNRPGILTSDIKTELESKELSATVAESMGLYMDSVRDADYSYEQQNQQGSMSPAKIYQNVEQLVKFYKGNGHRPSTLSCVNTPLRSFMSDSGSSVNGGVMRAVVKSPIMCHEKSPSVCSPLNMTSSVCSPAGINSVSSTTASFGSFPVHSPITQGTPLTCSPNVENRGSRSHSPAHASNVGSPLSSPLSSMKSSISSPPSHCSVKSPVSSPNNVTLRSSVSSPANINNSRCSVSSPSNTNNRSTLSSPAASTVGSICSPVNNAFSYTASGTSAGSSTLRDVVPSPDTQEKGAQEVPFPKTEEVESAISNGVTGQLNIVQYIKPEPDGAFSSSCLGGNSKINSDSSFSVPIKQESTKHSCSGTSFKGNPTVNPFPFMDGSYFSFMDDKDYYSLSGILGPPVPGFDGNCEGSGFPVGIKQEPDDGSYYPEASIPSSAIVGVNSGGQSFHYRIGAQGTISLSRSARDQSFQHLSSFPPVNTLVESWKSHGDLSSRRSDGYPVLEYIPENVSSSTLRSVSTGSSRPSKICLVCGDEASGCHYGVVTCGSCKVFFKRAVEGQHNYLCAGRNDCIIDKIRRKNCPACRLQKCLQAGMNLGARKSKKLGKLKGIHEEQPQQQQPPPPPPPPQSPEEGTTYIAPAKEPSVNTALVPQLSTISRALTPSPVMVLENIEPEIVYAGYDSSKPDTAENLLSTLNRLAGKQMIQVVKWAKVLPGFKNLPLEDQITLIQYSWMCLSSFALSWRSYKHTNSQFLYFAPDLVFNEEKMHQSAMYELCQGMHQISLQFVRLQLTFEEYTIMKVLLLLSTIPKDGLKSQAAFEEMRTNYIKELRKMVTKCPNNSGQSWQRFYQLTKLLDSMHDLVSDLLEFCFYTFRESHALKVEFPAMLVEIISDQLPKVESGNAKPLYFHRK
The experiment in a line: Displacement of [3H]-aldosterone from human mineralocorticoid receptor LBD (729 to 984 residues) after 1 hr by scintillation proximity assay. On the technique in general: Displacement assays read how much labelled ligand stays bound in the presence of the test substance.

The nature of data set [2]: Tmax in Han-Wistar rat at 2.1 mg/kg, po. Particulars: in vivo. The class given is ADME, organism-based.
For data set [3], the system named is Rattus norvegicus. Kind of data set: Dose normalized AUC (0 to infinity) in Han-Wistar rat at 2.1 mg/kg, po. The class given is ADME, organism-based. As to conditions: in vivo.
A short description of data set [4]: Oral bioavailability in Han-Wistar rat at […]. It counts as ADME, organism-based. As to conditions: in vivo.
The target of data set [5] is T2, Glucocorticoid receptor (Rattus norvegicus, UniProt P06536).
T2 sequence (P06536 whole entry): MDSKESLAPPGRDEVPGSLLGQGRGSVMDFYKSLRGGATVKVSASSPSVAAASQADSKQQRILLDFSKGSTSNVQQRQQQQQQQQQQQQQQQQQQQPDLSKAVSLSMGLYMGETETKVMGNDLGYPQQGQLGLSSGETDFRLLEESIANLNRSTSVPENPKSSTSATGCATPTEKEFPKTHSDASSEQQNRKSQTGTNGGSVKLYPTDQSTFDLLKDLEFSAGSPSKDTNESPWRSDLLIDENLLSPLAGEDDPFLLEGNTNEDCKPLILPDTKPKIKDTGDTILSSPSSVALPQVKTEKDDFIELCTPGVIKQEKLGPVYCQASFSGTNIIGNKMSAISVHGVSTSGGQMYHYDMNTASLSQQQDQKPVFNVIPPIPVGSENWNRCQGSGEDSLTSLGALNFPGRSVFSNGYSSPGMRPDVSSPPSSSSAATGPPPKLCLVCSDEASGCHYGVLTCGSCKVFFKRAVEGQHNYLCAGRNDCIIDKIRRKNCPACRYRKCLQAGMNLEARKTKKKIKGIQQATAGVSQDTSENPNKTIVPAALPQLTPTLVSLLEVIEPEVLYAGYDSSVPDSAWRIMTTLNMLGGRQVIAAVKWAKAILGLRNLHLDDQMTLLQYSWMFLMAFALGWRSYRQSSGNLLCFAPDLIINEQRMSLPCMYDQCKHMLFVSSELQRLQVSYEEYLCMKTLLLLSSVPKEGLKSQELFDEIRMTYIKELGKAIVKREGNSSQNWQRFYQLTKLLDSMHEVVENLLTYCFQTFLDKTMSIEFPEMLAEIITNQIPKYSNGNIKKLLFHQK
Kind of data set: Modulation of glucocorticoid receptor in rat plasma.

For data set [6], the target named is T3, Glucocorticoid receptor (Homo sapiens) (UniProt P04150).
T3 sequence (whole entry): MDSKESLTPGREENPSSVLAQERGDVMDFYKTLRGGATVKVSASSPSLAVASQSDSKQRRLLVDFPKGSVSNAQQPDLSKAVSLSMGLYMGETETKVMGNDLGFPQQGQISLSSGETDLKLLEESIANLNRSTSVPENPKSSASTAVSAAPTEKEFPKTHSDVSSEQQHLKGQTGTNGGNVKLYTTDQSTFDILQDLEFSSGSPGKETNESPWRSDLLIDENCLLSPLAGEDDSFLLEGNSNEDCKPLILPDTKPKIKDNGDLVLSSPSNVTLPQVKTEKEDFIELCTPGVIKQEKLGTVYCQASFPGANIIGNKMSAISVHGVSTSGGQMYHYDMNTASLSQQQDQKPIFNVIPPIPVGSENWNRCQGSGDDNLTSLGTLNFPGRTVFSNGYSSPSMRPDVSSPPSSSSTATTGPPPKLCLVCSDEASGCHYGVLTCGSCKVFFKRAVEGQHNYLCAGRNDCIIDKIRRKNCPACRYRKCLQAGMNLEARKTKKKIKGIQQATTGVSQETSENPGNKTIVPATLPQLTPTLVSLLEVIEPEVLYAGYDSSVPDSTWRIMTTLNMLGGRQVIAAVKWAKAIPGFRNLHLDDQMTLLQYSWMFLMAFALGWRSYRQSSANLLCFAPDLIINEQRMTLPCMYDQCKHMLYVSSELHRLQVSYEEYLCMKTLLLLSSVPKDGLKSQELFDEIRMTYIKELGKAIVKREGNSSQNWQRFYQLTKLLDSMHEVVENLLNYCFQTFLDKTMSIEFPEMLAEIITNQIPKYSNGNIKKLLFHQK
Description: Transrepression of GR in cryopreserved human fetal osteoblasts assessed as inhibition of OPG mRNA expression after 4 hrs by RT-qPCR analysis

In data set [7] the target is T4, Glucocorticoid receptor (Homo sapiens, UniProt P04150).
T4 sequence (P04150 whole entry): T3 sequence (whole entry)
As to conditions: blood.
Description: Therapeutic index, ratio of fIC20 for transrepression of GR in cryopreserved human fetal osteoblasts assessed as inhibition of OPG mRNA expression to fIC30 for transrepression of GR in human whole blood assessed as inhibition of LPS-induced TNF-alpha release

SMILES strings stand for the structures. Where only a bound is given, the exact number is not on record here.

The IC50 is the concentration at which inhibition is half-maximal. A low value points to inhibition by little substance. As a reminder, the Tmax is the time at which the peak concentration occurs. One may read the bioavailability as dose-corrected exposure relative to a reference, in per cent. As to `CC(C)[C@H](NC(=O)C(C)(F)F)[C@H](Oc1ccc2c(cnn2-c2ccc(=O)n(C)c2)c1)c1ccccc1` [MIZACORAT], the IC50 is > 38000 nM in data set [1] and 30 nM in data set [5]. In data set [2], the Tmax was found to be 2 h. For the same compound, the AUC/dose in data set [3] came to 5.2 µM·h. In data set [4], this compound showed a bioavailability of 52%. In data set [6], the fIC20 is 0.74 nM. For the same compound, the TI in data set [7] is 0.55.
